According to US9758529B2, “Fused dihydro-4H-pyrazolo[5,1-C][1,4]oxazinyl compounds and analogs for treating CNS disorders” (Sunovion Pharmaceuticals Inc., priority 2015, dated 2017):
Structures can show the parent of a compound that is named as a salt.

Each compound was assayed on mice (assay: Neuropharmacological Assay (SmartCube)). Details: i.p. 15 min before behavioral test; 3 doses, most efficacious dose(s) presented.
Type: in vivo

SMILES | AD: ADHD (probability of class match) | AG: analgesic (probability of class match) | AX: anxiolytic (probability of class match) | CE: cognitive enhancer (probability of class match) | DP: anti-depressant (probability of class match) | HA: hallucinogen (probability of class match) | MS: mood stabilizer (probability of class match) | PS: anti-psychotic (probability of class match) | SD: sedative hypnotic (probability of class match) | UN: uncharacterized CNS activity (probability of class match)
CN(C)CC1OCCn2nc3cnccc3c21.Cl.Cl (stereo not drawn) [Compound 62, 1-((dimethylammonio)methyl)-3,4-dihydro-1H-pyrido[3′,4′:3,4]pyrazolo[5,1-c][1,4]oxazin-8-ium chloride] | + (LOQ≦ + <5%) | + (LOQ≦ + <5%) | ++ (5%≦ ++ <25%) | + (LOQ≦ + <5%) | + (LOQ≦ + <5%) | + (LOQ≦ + <5%) | + (LOQ≦ + <5%) | + (LOQ≦ + <5%) | + (LOQ≦ + <5%) | + (LOQ≦ + <5%)
CN(C)CC1OCCn2nc3ccc(Cl)cc3c21.Cl (stereo not drawn) [Compound 6, 1-(9-chloro-3,4-dihydro-1H-[1,4]oxazino[4,3-b]indazol-1-yl)-N,N-dimethylmethanaminium chloride] | + (LOQ≦ + <5%) | ++ (5%≦ ++ <25%) | ++ (5%≦ ++ <25%) | ++ (5%≦ ++ <25%) | +++ (25%≦ +++ <50%) | + (LOQ≦ + <5%) | + (LOQ≦ + <5%) | ++ (5%≦ ++ <25%) | + (LOQ≦ + <5%) | + (LOQ≦ + <5%)
CNC[C@H]1OCCn2nc3ccsc3c21 [Compound 69, (R)-1-(6,7-dihydro-9H-thieno[3′,2′:3,4]pyrazolo[5,1-c][1,4]oxazin-9-yl)-N-methylmethanamine] | + (LOQ≦ + <5%) | + (LOQ≦ + <5%) | ++ (5%≦ ++ <25%) | + (LOQ≦ + <5%) | ++ (5%≦ ++ <25%) | + (LOQ≦ + <5%) | + (LOQ≦ + <5%) | + (LOQ≦ + <5%) | + (LOQ≦ + <5%) | ++ (5%≦ ++ <25%)
c1ccc2c3n(nc2c1)CCOC31CCNCC1 [Compound 36, 3′,4′-dihydrospiro[piperidine-4,1′-[1,4]oxazino[4,3-b]indazol]-1-ium chloride] | + (LOQ≦ + <5%) | ++ (5%≦ ++ <25%) | ++ (5%≦ ++ <25%) | ++ (5%≦ ++ <25%) | +++ (25%≦ +++ <50%) | + (LOQ≦ + <5%) | + (LOQ≦ + <5%) | ++ (5%≦ ++ <25%) | ++ (5%≦ ++ <25%) | ++ (5%≦ ++ <25%)
CNCC1OCCn2nc3ccccc3c21 (stereo not drawn) [Compound I-4, (3,4-dihydro-1H-[1,4]oxazino[4,3-b]indazol-1-yl)-N-methylmethanamine] | ++ (5%≦ ++ <25%) | + (LOQ≦ + <5%) | +++ (25%≦ +++ <50%) | + (LOQ≦ + <5%) | ++++ (50%≦ ++++) | ++ (5%≦ ++ <25%) | + (LOQ≦ + <5%) | + (LOQ≦ + <5%) | ++ (5%≦ ++ <25%) | + (LOQ≦ + <5%)
CC(C)NCC1OCCn2nc3ccccc3c21 (stereo not drawn) [Compound 17, N-((3,4-dihydro-1H-[1,4]oxazino[4,3-b]indazol-1-yl)methyl)propan-2-amine] | + (LOQ≦ + <5%) | + (LOQ≦ + <5%) | ++ (5%≦ ++ <25%) | + (LOQ≦ + <5%) | ++ (5%≦ ++ <25%) | + (LOQ≦ + <5%) | + (LOQ≦ + <5%) | + (LOQ≦ + <5%) | + (LOQ≦ + <5%) | ++ (5%≦ ++ <25%)
CNCC1OCCn2nc3cnccc3c21.Cl.Cl (stereo not drawn) [Compound 61, 1-((methylammonio)methyl)-3,4-dihydro-1H-pyrido[3′,4′:3,4]pyrazolo[5,1-c][1,4]oxazin-8-ium chloride] | ++ (5%≦ ++ <25%) | + (LOQ≦ + <5%) | + (LOQ≦ + <5%) | + (LOQ≦ + <5%) | ++++ (50%≦ ++++) | ++ (5%≦ ++ <25%) | + (LOQ≦ + <5%) | + (LOQ≦ + <5%) | + (LOQ≦ + <5%) | ++ (5%≦ ++ <25%)
Cl.NCC1OCCn2nc3cc(F)ccc3c21 (stereo not drawn) [Compound 12, (8-fluoro-3,4-dihydro-1H-[1,4]oxazino[4,3-b]indazol-1-yl)methanaminium] | + (LOQ≦ + <5%) | + (LOQ≦ + <5%) | + (LOQ≦ + <5%) | + (LOQ≦ + <5%) | + (LOQ≦ + <5%) | + (LOQ≦ + <5%) | + (LOQ≦ + <5%) | + (LOQ≦ + <5%) | + (LOQ≦ + <5%) | + (LOQ≦ + <5%)
CN(CC1OCCn2nc3ccccc3c21)C1CC1 (stereo not drawn) [Compound 22, N-((3,4-dihydro-1H-[1,4]oxazino[4,3-b]indazol-1-yl)methyl)-N-methylcyclopropanamine hydrogen chloride salt] | ++ (5%≦ ++ <25%) | + (LOQ≦ + <5%) | ++ (5%≦ ++ <25%) | + (LOQ≦ + <5%) | ++++ (50%≦ ++++) | ++ (5%≦ ++ <25%) | + (LOQ≦ + <5%) | + (LOQ≦ + <5%) | + (LOQ≦ + <5%) | ++ (5%≦ ++ <25%)
CNC[C@@H]1OCCn2nc3ccsc3c21 [Compound 68, (S)-1-(6,7-dihydro-9H-thieno[3′,2′:3,4]pyrazolo[5,1-c][1,4]oxazin-9-yl)-N-methylmethanamine] | ++ (5%≦ ++ <25%) | ++ (5%≦ ++ <25%) | ++ (5%≦ ++ <25%) | + (LOQ≦ + <5%) | ++++ (50%≦ ++++) | ++++ (50%≦ ++++) | + (LOQ≦ + <5%) | + (LOQ≦ + <5%) | ++ (5%≦ ++ <25%) | ++ (5%≦ ++ <25%)
Cl.NCC1OCCn2nc3ccc(F)cc3c21 (stereo not drawn) [Compound 9, (9-fluoro-3,4-dihydro-1H-[1,4]oxazino[4,3-b]indazol-1-yl)methanaminium chloride] | ++ (5%≦ ++ <25%) | ++ (5%≦ ++ <25%) | + (LOQ≦ + <5%) | ++ (5%≦ ++ <25%) | ++ (5%≦ ++ <25%) | + (LOQ≦ + <5%) | + (LOQ≦ + <5%) | + (LOQ≦ + <5%) | + (LOQ≦ + <5%) | +++ (25%≦ +++ <50%)
CCN(C)C[C@@H]1OCCn2nc3ccccc3c21.Cl [Compound 49, N—(((S)-3,4-dihydro-1H-[1,4]oxazino[4,3-b]indazol-1-yl)methyl)-N-methylethanaminium chloride] | + (LOQ≦ + <5%) | +++ (25%≦ +++ <50%) | ++ (5%≦ ++ <25%) | ++ (5%≦ ++ <25%) | ++ (5%≦ ++ <25%) | + (LOQ≦ + <5%) | + (LOQ≦ + <5%) | + (LOQ≦ + <5%) | ++ (5%≦ ++ <25%) | + (LOQ≦ + <5%)

Same assay, conditions: i.p. 15 min before behavioral test; 3 doses, most efficacious dose(s) presented

SMILES | XG: anxiogenic (probability of class match)
CN(C)CC1OCCn2nc3cnccc3c21.Cl.Cl (stereo not drawn) [Compound 62, 1-((dimethylammonio)methyl)-3,4-dihydro-1H-pyrido[3′,4′:3,4]pyrazolo[5,1-c][1,4]oxazin-8-ium chloride] | + (LOQ≦ + <5%)
CN(C)CC1OCCn2nc3ccc(Cl)cc3c21.Cl (stereo not drawn) [Compound 6, 1-(9-chloro-3,4-dihydro-1H-[1,4]oxazino[4,3-b]indazol-1-yl)-N,N-dimethylmethanaminium chloride] | + (LOQ≦ + <5%)
CNC[C@H]1OCCn2nc3ccsc3c21 [Compound 69, (R)-1-(6,7-dihydro-9H-thieno[3′,2′:3,4]pyrazolo[5,1-c][1,4]oxazin-9-yl)-N-methylmethanamine] | + (LOQ≦ + <5%)
c1ccc2c3n(nc2c1)CCOC31CCNCC1 [Compound 36, 3′,4′-dihydrospiro[piperidine-4,1′-[1,4]oxazino[4,3-b]indazol]-1-ium chloride] | + (LOQ≦ + <5%)
CNCC1OCCn2nc3ccccc3c21 (stereo not drawn) [Compound I-4, (3,4-dihydro-1H-[1,4]oxazino[4,3-b]indazol-1-yl)-N-methylmethanamine] | + (LOQ≦ + <5%)
CC(C)NCC1OCCn2nc3ccccc3c21 (stereo not drawn) [Compound 17, N-((3,4-dihydro-1H-[1,4]oxazino[4,3-b]indazol-1-yl)methyl)propan-2-amine] | + (LOQ≦ + <5%)
CNCC1OCCn2nc3cnccc3c21.Cl.Cl (stereo not drawn) [Compound 61, 1-((methylammonio)methyl)-3,4-dihydro-1H-pyrido[3′,4′:3,4]pyrazolo[5,1-c][1,4]oxazin-8-ium chloride] | + (LOQ≦ + <5%)
Cl.NCC1OCCn2nc3cc(F)ccc3c21 (stereo not drawn) [Compound 12, (8-fluoro-3,4-dihydro-1H-[1,4]oxazino[4,3-b]indazol-1-yl)methanaminium] | + (LOQ≦ + <5%)
CN(CC1OCCn2nc3ccccc3c21)C1CC1 (stereo not drawn) [Compound 22, N-((3,4-dihydro-1H-[1,4]oxazino[4,3-b]indazol-1-yl)methyl)-N-methylcyclopropanamine hydrogen chloride salt] | + (LOQ≦ + <5%)
CNC[C@@H]1OCCn2nc3ccsc3c21 [Compound 68, (S)-1-(6,7-dihydro-9H-thieno[3′,2′:3,4]pyrazolo[5,1-c][1,4]oxazin-9-yl)-N-methylmethanamine] | + (LOQ≦ + <5%)
Cl.NCC1OCCn2nc3ccc(F)cc3c21 (stereo not drawn) [Compound 9, (9-fluoro-3,4-dihydro-1H-[1,4]oxazino[4,3-b]indazol-1-yl)methanaminium chloride] | + (LOQ≦ + <5%)
CCN(C)C[C@@H]1OCCn2nc3ccccc3c21.Cl [Compound 49, N—(((S)-3,4-dihydro-1H-[1,4]oxazino[4,3-b]indazol-1-yl)methyl)-N-methylethanaminium chloride] | + (LOQ≦ + <5%)
